Test results published in patent publication US11077098B2, “Opioid receptor ligands and methods of using and making same” (TREVENA, INC., priority 2011, dated 2021).

Tested on: mice
Assay: hot plate assay for antinociception in mice
Format: in vivo, mouse
Settings: for analgesic effect in the mouse hot plate assay compared to morphine / ED50: SC; for ED50: tested thirty minutes after drug administration
Protocol: The hot plate assay is adapted from the procedure originally described by O'Callaghan and Holtzman (JPET, 192, 497, 1975) and is commonly used to determine the potential analgesic efficacy of opioid agonists. The antinociceptive effect of the composition(s) described herein in the hot plate is expressed in % MPE (Maximum Possible Effect).
Rats (175-250 g) or mice (20-30 g) acclimated to the vivarium for at least 48 hr prior to behavioral testing. Test drugs were administered by the subcutaneous (SC) route. Animals were placed on the hot plate, which the temperature was set at 50-56° C., depending on the in vitro potency of the compound. A cutoff time of 30-60 seconds was used depending on the temperature of the hot plate so that the paws of the animal displaying analgesia, was not damaged by the heat stimulus. The cutoff time was considered a 100% response to the thermal insult. Prior to drug treatment, each animal was tested to determine the baseline response. Thirty minutes after drug administration, animals were re-tested. Dose response experiments were performed to evaluate the potency of the test compound when various doses were administered at the point when maximal analgesia is observed.
The % MPE was calculated according to the following formula: % MPE=[(Post drug latency−baseline latency)/(60 or 30−baseline latency)]×100
ED50 values were calculated from the mean % MPE values for each group using log dose-response curves by least-squares regression analysis.

| SMILES | analgesic effect in the mouse hot plate assay compared to morphine | ED50 (mouse hot plate) [mg/kg] | % MPE (mouse hot plate, at 10 mg/kg SC) [% at 10] | efficacy in the mouse hot plate (at a dose of 10 mg/kg SC) |
| --- | --- | --- | --- | --- |
| c1ccc(CNCC[C@@]2(c3ccccn3)CCOC3(CCCC3)C2)cc1 [Compound 28] | more robust analgesic effect | 1.2 | – | – |
| Fc1ccc([C@]2(CCNCc3ccccc3)CCOC3(CCCC3)C2)cc1 [Compound 81, benzyl({2-[(9R)-9-(4-fluorophenyl)-6-oxaspiro[4.5]decan-9-yl]ethyl})amine] | – | – | 100 | – |
| Cc1cccc(CNCC[C@@]2(c3ccc(F)cc3)CCOC3(CCCC3)C2)c1 [Compound 122, {2-[(9R)-9-(4-fluorophenyl)-6-oxaspiro[4.5]decan-9-yl]ethyl}[(3-methylphenyl)methyl]amine] | more robust analgesic effect | 1.1 | – | – |
| Cc1ccc(CNCC[C@@]2(c3ccc(F)cc3)CCOC3(CCCC3)C2)s1 [Compound 145] | – | 5.9 | – | – |
| CN1CC[C@]23c4c5ccc(O)c4O[C@H]2[C@@H](O)C=C[C@H]3[C@H]1C5 [Morphine, reference compound] | – | 3.8 | – | full efficacy |
